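Protocol summary: plate cells (96-well), add compound at 5 concentrations, incubate 48 h, interpolate endpoints linearly. GI50 marks 50% less growth. TGI: concentration producing complete growth inhibition.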
What was measured:
Experiment in all cases: NCI anticancer screen, dose series, 48 h
[1] = test system: 786-0 renal
[2] = test system: A498 renal
[3] = test system: A549 NSCLC
[4] = test system: ACHN renal
[5] = test system: BT-549 breast
[6] = test system: CAKI-1 renal
[7] = test system: CCRF-CEM leukemia
[8] = test system: COLO 205 colon
[9] = test system: DU-145 prostate
[10] = test system: EKVX NSCLC
[11] = test system: HCC-2998 colon
[12] = test system: HCT-116 colon
[13] = test system: HCT-15 colon
[14] = test system: HL-60(TB) leukemia
[15] = test system: HOP-62 NSCLC
[16] = test system: HOP-92 NSCLC
[17] = test system: HS 578T breast
[18] = test system: HT29 colon
[19] = test system: IGROV1 ovarian
[20] = test system: K-562 leukemia
[21] = test system: KM12 colon
[22] = test system: LOX IMVI melanoma
[23] = test system: M14 melanoma
[24] = test system: MALME-3M melanoma
[25] = test system: MCF7 breast
[26] = test system: MDA-MB-231 breast
[27] = test system: MDA-MB-435
[28] = test system: MDA-MB-468 breast
[29] = test system: MOLT-4 leukemia

## Cc1oc(-c2ccccc2)nc1CN[C@@H]1C[C@@H]2C[C@H]([C@H]1C)C2(C)C
[1]
  GI50: 5.64 µM
  TGI: 21.1 µM
[2]
  GI50: 13.5 µM
  TGI: 26.8 µM
[3]
  GI50: 14 µM
  TGI: 33.6 µM
[4]
  GI50: 13.7 µM
  TGI: 26.5 µM
[5]
  GI50: 4.94 µM
  TGI: 19.1 µM
[6]
  GI50: 13.3 µM
  TGI: 26.1 µM
[7]
  GI50: 18.9 µM
  TGI: 48.6 µM
[8]
  GI50: 2.11 µM
  TGI: 5.3 µM
[9]
  GI50: 10.1 µM
  TGI: 21.8 µM
[10]
  GI50: 11.2 µM
  TGI: 23.3 µM
[11]
  GI50: 4.22 µM
  TGI: 16.6 µM
[12]
  GI50: 4.3 µM
  TGI: 18.3 µM
[13]
  GI50: 3.85 µM
  TGI: 15.5 µM
[14]
  GI50: 18 µM
  TGI: 37.7 µM
[15]
  GI50: 14.2 µM
  TGI: 32.4 µM
[16]
  GI50: 1.49 µM
  TGI: 12.6 µM
[17]
  GI50: 11.9 µM
  TGI: 30.5 µM
[18]
  GI50: 3.39 µM
  TGI: 15 µM
[19]
  GI50: 10.1 µM
  TGI: 22.1 µM
[20]
  GI50: 3.63 µM
  TGI: > 100 µM
[21]
  GI50: 9.49 µM
  TGI: 21.8 µM
[22]
  GI50: 5.17 µM
  TGI: 18.1 µM
[23]
  GI50: 2.21 µM
  TGI: 5.78 µM
[24]
  GI50: 2.87 µM
  TGI: 13.6 µM
[25]
  GI50: 7.06 µM
  TGI: 21.4 µM
[26]
  GI50: 4.56 µM
  TGI: 16.9 µM
[27]
  GI50: 13.3 µM
  TGI: 26.5 µM
[28]
  GI50: 2.13 µM
  TGI: 8.29 µM
[29]
  GI50: 16.6 µM
  TGI: 45.9 µM

From PubChem BioAssay (NCI)
